The text below walks through data of patent US20240261294A1, “METHOD FOR TREATING IDH INHIBITOR-RESISTANT SUBJECTS” (Eli Lilly and Company, priority 2021, published 2024).

Molecules are shown by their SMILES. Positions count from the first letter of the chain named. pIC50: −log10 of the molar value. Like-named read-outs stand apart in the source and are kept apart here.

In assay [1] the target is T1, IDH2 R172K (Homo sapiens, UniProt P48735, R172K).
T1 sequence (P48735 40-452 R172K): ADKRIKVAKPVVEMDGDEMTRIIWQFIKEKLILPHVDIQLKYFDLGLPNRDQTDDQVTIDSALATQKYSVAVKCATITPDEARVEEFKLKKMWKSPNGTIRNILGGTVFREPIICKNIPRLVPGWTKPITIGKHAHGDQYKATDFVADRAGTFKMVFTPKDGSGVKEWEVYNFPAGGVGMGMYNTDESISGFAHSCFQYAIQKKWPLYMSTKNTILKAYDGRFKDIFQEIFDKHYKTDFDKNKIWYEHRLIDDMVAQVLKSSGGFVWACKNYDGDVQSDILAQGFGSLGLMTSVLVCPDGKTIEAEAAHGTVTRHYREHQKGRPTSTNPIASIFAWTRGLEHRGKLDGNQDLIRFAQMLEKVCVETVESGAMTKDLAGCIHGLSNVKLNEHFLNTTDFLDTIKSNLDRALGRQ
Put plainly: Inhibition of 2-HG production in IDH2 mutant U-87 MG cells. It counts as cell-based. On the procedure:
(§1) Compounds and Formulation. Compound A may be synthesized as described in WO/18/111707. Compound A is prepared as a 20 mM stock in 100% DMSO (dimethyl sulfoxide) (Sigma, D2438) and diluted serially in 100% DMSO to achieve the desired concentrations. DMSO preparations are further diluted with cell culture media prior to addition in the assay.
(§2) Cell lines. U-87 MG cells (ATCC, HTB-14) are cultured and assayed in MEM (Gibco, 11095) with 2 mM GlutaMAX (Gibco, 35050), 1 mM Pyruvate (Gibco, 11360), 0.1 mM NEAA ((Non-essential amino acid) Gibco, 11140) and 10% dialyzed FBS (Fetal bovine serum) (Gibco, 26400).
(§3) Cell-based inhibition assays. Cell-based assays are performed by measuring 2-HG in U-87 MG cells in which IDH2 mutations are expressed.
(§4) DNA constructs encoding IDH2 mutations are introduced into U-87 MG cells using transfection (Promega FuGENE HD, E2311) or lentiviral transduction, and the IDH2-mutant expressing cell lines are selected using blasticidin (5 μg/ml) or puromycin (1 μg/ml). Second site mutations (Q316E, I319M, P167R, and G260A) are evaluated in cis (same monomer as driver mutation within dimer) or in trans (opposite monomer from driver mutation in dimer). For compound treatments, 12,500 or 50,000 cells per well in culture medium (150 μl or 100 μl, respectively) are plated in 96 well cell culture plates (Falcon, 353377) 2 hrs prior to treatment. Cells are treated with serial dilutions of compound A in standard growth media. Plates are incubated in a mammalian cell culture incubator (humidified, 37° C., 5% CO2) for 16 or 72 hrs. Following the incubation period, the media is aspirated and cell extracts are prepared by addition of ice-cold 80% methanol/20% water (100 μL) containing liquid chromatography-mass spectrometry (LC-MS) internal standards (1 μM ^13C4 α-KG and ^13C5 2-HG) per well for ion pairing LC-MS method. 96-well sample plates are then sealed, shaken at 450 rpm for 10 min, and then placed at −20° C. and stored until LC-MS analysis.
(§5) LC-MS metabolite analysis of conditioned media and cell lysates. The effect of inhibitors on the concentrations of 2-HG are determined by LC-MS analysis of cell lysates using an ion-pairing method as described below.
(§6) Calibration curves are prepared by spiking 2-HG and α-KG into 80% methanol/20% water containing LC-MS internal standards (1 μM ^13C4 α-KG and 1 μM ^13C5 2-HG). The quantitation of 2-HG and α-KG is accomplished using an AB Sciex 6500 mass spectrometer with an Electrospray Ionization (ESI) probe and interfaced with an Ultra Performance Liquid Chromatography (UHPLC) system in the negative multiple-reaction monitoring (MRM) mode. The UHPLC system consists of an Agilent 1290 binary pump, thermostatted column compartment (TCC), and sampler. The injection volume is 1 μL for cell culture extracts. The extracts are chromatographically resolved using a Hypercarb column, 2.1×20 mm, […] Javelin HTS (Thermo Scientific, PN: 35005-022135). Mobile phase A is water/10 mM tributylamine/15 mM acetic acid. Mobile phase B is acetonitrile/20 mM tributylamine/30 mM acetic acid. The solvent flow rate is 1.0 mL/min. The isocratic condition is kept at 26% mobile phase B. The valve, sample loop, and needle are washed with 50% acetonitrile: 50% methanol for 20 seconds. The column temperature is kept at 55° C. Calibration curves are calculated by least-square linear regression with 1/x weighting. 2-HG and α-KG are quantified using standard curve and ratio of the peak area of analytes to internal standard. Data analysis is performed using MultiQuant 3.0 (AB Sciex). The raw data are exported to Microsoft Excel spreadsheets.
(§7) Determination of IC50 Curves. IC50 curves for each compound are obtained using four parameter data fitting analysis in GraphPad/Prism software.

For assay [2], the target named is T2, IDH2 R172K_G260A cis (Homo sapiens, UniProt P48735, G260A/R172K).
T2 construct: expressed in transfected cells; host or cells: U-87 MG
T2 sequence (P48735 40-452 R172K/G260A): T1 sequence (P48735 40-452 R172K) with G221A
The assay is described as above. As to conditions: 16 hours incubation, 50K cells/well, 100 μl media/well, read-out: Relative IC50 (nM) Mean, inhibition of 2-HG production. It counts as cell-based. As for the experimental part:
as §1, §2, §3, §4, §5, §6, §7

`C=CC(=O)N1CCN([C@@H](CC2CC2)c2ccc([C@H](C)Nc3ncc4c(n3)N(CC)C(=O)OC4)cc2)CC1` [Compound A, 7-[[(1S)-1-[4-[(1S)-2-cyclopropyl-1-(4-prop-2-enoylpiperazin-1-yl)ethyl]phenyl]ethyl]amino]-1-ethyl-4H-pyrimido[4,5-d][1,3]oxazin-2-one]: the IC50 in assay [1] (16 hours incubation, 50K cells/well, 100 μl media/well, read-out: Relative IC50 (nM) Mean, inhibition of 2-HG production) came to 56 nM; in assay [2], 13 nM. Moreover, the negative logarithm of the IC50 (pIC50) in assay [1] (72 hours incubation, 12.5K cells/well, 150 μl media/well, read-out: IC50, inhibition of 2-HG production) is 7.87.

In general, IC50 refers to the concentration that gives 50% inhibition. One may read the pIC50 as −log10 of the IC50, conventionally taken in molar units.
